Experimental data reported in US12577248B2, “Substituted [1,2,4]triazolo[1,5-a]pyrazines as spleen tyrosine kinase inhibitors” (NANJING RUIJIE PHARMA CO., LTD., priority 2020, dated 2026).

How the values were obtained:
[1] = In vivo pharmacokinetic analysis, single dose, ICR mice; settings: mouse, male, plasma; for AUC(0-inf) / AUC(0-t) / Cmax / Tmax / half-life: single dose
Method: This is a single-dose study in ICR mice (male, n=9/administration) with intravenous and oral administration. Compound concentrations in plasma were measured and calculated for pharmacokinetic (PK) analysis via WinNonLin 6.4.

SYK kinase = SYK kinase (Homo sapiens, UniProt P43405); assay: SYK kinase assay (HTRF KinEASE-TK); assay type: biochemical; settings: class symbols, read-out: Syk inhibition IC50
In short: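 SYK pre-incubated with compound for 10 min at room temperature, then reacted with biotinylated TK substrate and ATP for 30 min in buffer with 5 mM MgCl2, 1 mM MnCl2 and 1 mM DTT. HTRF 665/615 ratio read after 1 h detection. IC50 from variable-slope fit.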

Ba/F3-TEL-SYK cells = biological target: T1, Ba/F3-TEL-SYK cells (Homo sapiens, UniProt P43405); assay: Ba/F3-TEL-SYK cell-based assay (CellTiter-Glo proliferation); settings: 72 hr, read-out: BaF3 Cell assay IC50
T1 construct: fused on or other part: N-terminal part of TEL (ETV6) with its oligomerising PNT/SAM domain, fused before the SYK part that carries the kinase domain; P41212 (Transcription factor ETV6)
Method: CellTiter-Glo® Luminescent Cell Viability Assay was used to determine the number of viable cells in culture based on quantitation of the ATP present, as an indicator of metabolically active cells. The assay was performed in the following steps: First, the testing compounds were dissolved in DMSO to make a stock solution. The stocks (10 mM) were then diluted to varying concentrations: […], 0.305 and 0.102 μM. An aliquot of 0.2 μl of diluted compounds were added to the 384 well assay plate. Second, added 40 μl of cell suspension with 800 Ba/F3-TEL-SYK cells into each well and incubated the plate at 37° C., 5% CO2 for 72 hr. Then, added 20 μl Cell Titer-Glo Reagent into each well of the cell culture plate. Mixed the contents for 2 min on an orbital shaker to lyse cells, and rest the plate at room temperature for 30 min. Finally, luminescence values were obtained using an Envision 2104 plate reader (PerkinElmer) and calculated the average data and Standard Deviation (SD) of DMSO and Reference (GS-9973, 1 μM) as high control and low control. To determine the IC50 value, fit the data using non-linear regression equation.

In the case of COc1cc(Nc2nc(-c3ccc4cn[nH]c4c3)cn3ncnc23)ccc1N1CCC(C)(O)CC1 [I22, 1-(4-((6-(1H-indazol-6-yl)-[1,2,4]triazolo[1,5-a]pyrazin-8-yl)amino)-2-methoxyphenyl)-4-methylpiperidin-4-ol], the AUC(0-inf) ([1]; IV Administration (2 mg/kg)) is reported as 429 ng·h/mL, the AUC(0-t) ([1]; IV Administration (2 mg/kg)) is reported as 428 ng·h/mL and the Cmax ([1]; IV Administration (2 mg/kg)) is reported as 1320 ng/mL. It also gave a Tmax ([1]; IV Administration (2 mg/kg)) of 4.8 min, a half-life ([1]; IV Administration (2 mg/kg)) of 12.6 min and an AUC(0-inf) ([1]; PO Administration (10 mg/kg)) of 125 ng·h/mL. It also gave an AUC(0-t) ([1]; PO Administration (10 mg/kg)) of 115 ng·h/mL, a Cmax ([1]; PO Administration (10 mg/kg)) of 108 ng/mL and a Tmax ([1]; PO Administration (10 mg/kg)) of 15 min. The half-life ([1]; PO Administration (10 mg/kg)) was 28.8 min, the bioavailability ([1]; PO 10 mg/kg vs IV 2 mg/kg, read-out: F % (bioavailability)) was 5.38% and the IC50 (SYK kinase) was at most 50 nM. The GI50 (Ba/F3-TEL-SYK cells) was at most 50 nM.
